Laboratory results taken from PubChem BioAssay (NCI).
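Method: 48-hour compound exposure of cells in 96-well plates, five concentrations, linear interpolation of endpoints. TGI marks complete inhibition of growth.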

Key:
Experiment in all cases: NCI tumour cell line growth inhibition, 48 h
[1] = system: HCT-116 colon
[2] = system: OVCAR-3 ovarian
[3] = system: DMS 114 small cell lung
[4] = system: K-562 leukemia
[5] = system: SF-268 CNS
[6] = system: SK-MEL-2 melanoma
[7] = system: SF-295 CNS
[8] = system: HCT-15 colon
[9] = system: UACC-257 melanoma
[10] = system: U251 CNS
[11] = system: EKVX NSCLC
[12] = system: DMS 273 small cell lung
[13] = system: SW-620 colon
[14] = system: NCI-H23 lung
[15] = system: MALME-3M melanoma
[16] = system: SN12K1 renal
[17] = system: HOP-18 NSCLC
[18] = system: CCRF-CEM leukemia
[19] = system: SN12C renal
[20] = system: KM12 colon
[21] = system: MOLT-4 leukemia
[22] = system: SF-539 CNS
[23] = system: NCI/ADR-RES ovarian
[24] = system: NCI-H460 lung
[25] = system: HL-60(TB) leukemia
[26] = system: XF 498 CNS
[27] = system: HCC-2998 colon
[28] = system: SK-MEL-5 melanoma
[29] = system: LOX IMVI melanoma
[30] = system: NCI-H522 lung
[31] = system: RXF 393 renal
[32] = system: UO-31 renal
[33] = system: RPMI-8226 leukemia
[34] = system: P388 leukemia
[35] = system: A549 NSCLC
[36] = system: SNB-78 CNS
[37] = system: M19-MEL melanoma
[38] = system: HT29 colon
[39] = system: SK-OV-3 ovarian
[40] = system: DLD-1 colon
[41] = system: OVCAR-8 ovarian
[42] = system: NCI-H226 lung
[43] = system: HOP-62 NSCLC
[44] = system: SNB-75 CNS
[45] = system: UACC-62 melanoma
[46] = system: MCF7 breast
[47] = system: SK-MEL-28 melanoma
[48] = system: IGROV1 ovarian
[49] = system: A498 renal
[50] = system: OVCAR-5 ovarian
[51] = system: HOP-92 NSCLC
[52] = system: OVCAR-4 ovarian

SMILES: O=C1c2ccccc2OCC1/C=N/O (configuration not stated)
- TGI [1]: > 100 µM
- TGI [2]: > 100 µM
- TGI [3]: 98.9 µM
- TGI [4]: > 100 µM
- TGI [5]: > 100 µM
- TGI [6]: > 100 µM
- TGI [7]: > 100 µM
- TGI [8]: > 100 µM
- TGI [9]: > 100 µM
- TGI [10]: > 100 µM
- TGI [11]: > 100 µM
- TGI [12]: > 100 µM
- TGI [13]: > 100 µM
- TGI [14]: > 100 µM
- TGI [15]: > 100 µM
- TGI [16]: > 100 µM
- TGI [17]: > 100 µM
- TGI [18]: > 100 µM
- TGI [19]: > 100 µM
- TGI [20]: > 100 µM
- TGI [21]: > 100 µM
- TGI [22]: > 100 µM
- TGI [23]: > 100 µM
- TGI [24]: > 100 µM
- TGI [25]: > 100 µM
- TGI [26]: > 100 µM
- TGI [27]: > 100 µM
- TGI [28]: > 100 µM
- TGI [29]: > 100 µM
- TGI [30]: 62.1 µM
- TGI [31]: 76.4 µM
- TGI [32]: > 100 µM
- TGI [33]: > 100 µM
- TGI [34]: > 63.7 µM
- TGI [35]: > 100 µM
- TGI [36]: > 100 µM
- TGI [37]: > 100 µM
- TGI [38]: > 100 µM
- TGI [39]: > 100 µM
- TGI [40]: > 100 µM
- TGI [41]: > 100 µM
- TGI [42]: > 100 µM
- TGI [43]: > 100 µM
- TGI [44]: > 100 µM
- TGI [45]: > 100 µM
- TGI [46]: > 100 µM
- TGI [47]: > 100 µM
- TGI [48]: > 100 µM
- TGI [49]: > 100 µM
- TGI [50]: > 100 µM
- TGI [51]: > 96 µM
- TGI [52]: > 100 µM
